According to US10259818B2, “Bicyclic azaheterocyclobenzylamines as PI3K inhibitors” (Incyte Corporation, priority 2012, dated 2019):

Tested on: SUDHL-6 cell line (diffuse large B cell lymphoma)
Assay: SUDHL-6 cell proliferation assay (Example B3)
Assay type: cell-based
Conditions: SUDHL-6 cells, 3 days, Cell Titer-GLO
Method: Example B3: SUDHL-6 Cell Proliferation Assay
SUDHL-6 cell line (diffuse large B cell lymphoma) was purchased from ATCC (Manassas, Va.) and maintained in the culture medium recommended (RPMI and 10% FBS). To measure the anti-proliferation activity of the compounds through ATP quantitation, the SUDHL-6 cells was plated with the culture medium (5000 cells/well/per 200 μl) into 96-well polystyrene clear black tissue culture plate (Greiner-bio-one through VWR, NJ) in the presence or absence of a concentration range of test compounds. After 3 days, Cell Titer-GLO Luminescent (Promega, Madison, Wis.) cell culture agent was added to each well for 10 minutes at room temperature to stabilize the luminescent signal. This determines the number of viable cells in culture based on quantitation of the ATP present, which signals the presence of metabolically active cells. Luminescence was measured with the TopCount 384 (Packard Bioscience through Perkin Elmer, Boston, Mass.). […] IC50 data for the Examples is presented in Table 4 determined by the assay of Example B3.

| Compound | IC50 [nM] | IC50 (Homo sapiens, SU-DHL-6, 72 h) [nM] |
| --- | --- | --- |
| Cc1nn(C(C)c2cc(Cl)c(F)c3c2OC(C)CN(C2CN(C(N)=O)C2)C3)c2ncnc(N)c12 (single isomer, unassigned) [Example 84, 3-[9-[1-(4-amino-3-methyl-1H-pyrazolo[3,4-d]pyrimidin-1-yl)ethyl]-7-chloro-6-fluoro-2-methyl-2,3-dihydro-1,4-benzoxazepin-4(5H)-yl]azetidine-1-carboxamide] | ≤ 500 | – |
| Cc1nn(C(C)c2cc(Cl)c(F)c3c2O[C@@H](C)CN(C2CN(CC(N)=O)C2)C3)c2ncnc(N)c12 (single isomer, unassigned) [Example 88] | – | ≤ 500 |
| Cc1nn(C(C)c2cc(Cl)c(C#N)c3c2OC(C)CN(C2CN(S(C)(=O)=O)C2)C3)c2ncnc(N)c12 (single isomer, unassigned) [Example 93, 9-[1-(4-amino-3-methyl-1H-pyrazolo[3,4-d]pyrimidin-1-yl)ethyl]-7-chloro-2-methyl-4-[1-(methylsulfonyl)azetidin-3-yl]-2,3,4,5-tetrahydro-1,4-benzoxazepine-6-carbonitrile] | – | ≤ 500 |
| Cc1nn(C(C)c2cc(Cl)c(C#N)c3c2OC(C)CN(C2CN(S(C)(=O)=O)C2)C3)c2ncnc(N)c12 (single isomer, unassigned) [Example 94, 9-[1-(4-amino-3-methyl-1H-pyrazolo[3,4-d]pyrimidin-1-yl)ethyl]-7-chloro-2-methyl-4-[1-(methylsulfonyl)azetidin-3-yl]-2,3,4,5-tetrahydro-1,4-benzoxazepine-6-carbonitrile] | ≤ 500 | – |
| CCC(=O)N1CC(N2Cc3c(C#N)c(Cl)cc(C(C)n4nc(C)c5c(N)ncnc54)c3OC(C)C2)C1 (single isomer, unassigned) [Example 95, 9-[1-(4-amino-3-methyl-1H-pyrazolo[3,4-d]pyrimidin-1-yl)ethyl]-7-chloro-2-methyl-4-(1-propionylazetidin-3-yl)-2,3,4,5-tetrahydro-1,4-benzoxazepine-6-carbonitrile] | – | ≤ 500 |
| CCNC(=O)N1CC(N2Cc3c(C#N)c(Cl)cc(C(C)n4nc(C)c5c(N)ncnc54)c3OC(C)C2)C1 (single isomer, unassigned) [Example 97, 3-[9-[1-(4-amino-3-methyl-1H-pyrazolo[3,4-d]pyrimidin-1-yl)ethyl]-7-chloro-6-cyano-2-methyl-2,3-dihydro-1,4-benzoxazepin-4(5H)-yl]-N-ethylazetidine-1-carboxamide] | – | ≤ 500 |
| CCNC(=O)N1CC(N2Cc3c(C#N)c(Cl)cc(C(C)n4nc(C)c5c(N)ncnc54)c3OC(C)C2)C1 (single isomer, unassigned) [Example 98, 3-[9-[1-(4-amino-3-methyl-1H-pyrazolo[3,4-d]pyrimidin-1-yl)ethyl]-7-chloro-6-cyano-2-methyl-2,3-dihydro-1,4-benzoxazepin-4(5H)-yl]-N-ethylazetidine-1-carboxamide] | ≤ 500 | – |
| CCOC(=O)N1CC(N2Cc3c(C#N)c(Cl)cc(C(C)n4nc(C)c5c(N)ncnc54)c3OC(C)C2)C1 (single isomer, unassigned) [Example 99, ethyl 3-[9-[1-(4-amino-3-methyl-1H-pyrazolo[3,4-d]pyrimidin-1-yl)ethyl]-7-chloro-6-cyano-2-methyl-2,3-dihydro-1,4-benzoxazepin-4(5H)-yl]azetidine-1-carboxylate] | – | ≤ 500 |
| CCOC(=O)N1CC(N2Cc3c(C#N)c(Cl)cc(C(C)n4nc(C)c5c(N)ncnc54)c3OC(C)C2)C1 (single isomer, unassigned) [Example 100, ethyl 3-[9-[1-(4-amino-3-methyl-1H-pyrazolo[3,4-d]pyrimidin-1-yl)ethyl]-7-chloro-6-cyano-2-methyl-2,3-dihydro-1,4-benzoxazepin-4(5H)-yl]azetidine-1-carboxylate] | ≤ 500 | – |
| Cc1nn(C(C)c2cc(Cl)c(C#N)c3c2OC(C)CN(C2CN(C(=O)NC(C)C)C2)C3)c2ncnc(N)c12 (single isomer, unassigned) [Example 101, 3-[9-[1-(4-amino-3-methyl-1H-pyrazolo[3,4-d]pyrimidin-1-yl)ethyl]-7-chloro-6-cyano-2-methyl-2,3-dihydro-1,4-benzoxazepin-4(5H)-yl]-N-isopropylazetidine-1-carboxamide] | – | ≤ 500 |
| Cc1nn(C(C)c2cc(Cl)c(C#N)c3c2OC(C)CN(C2CN(C(=O)NC(C)C)C2)C3)c2ncnc(N)c12 (single isomer, unassigned) [Example 102, 3-[9-[1-(4-amino-3-methyl-1H-pyrazolo[3,4-d]pyrimidin-1-yl)ethyl]-7-chloro-6-cyano-2-methyl-2,3-dihydro-1,4-benzoxazepin-4(5H)-yl]-N-isopropylazetidine-1-carboxamide] | ≤ 500 | – |
| Cc1nn(C(C)c2cc(Cl)c(C#N)c3c2OC(C)CN(C2CN(CCO)C2)C3)c2ncnc(N)c12 (single isomer, unassigned) [Example 104, 9-[1-(4-amino-3-methyl-1H-pyrazolo[3,4-d]pyrimidin-1-yl)ethyl]-7-chloro-4-[1-(2-hydroxyethyl)azetidin-3-yl]-2-methyl-2,3,4,5-tetrahydro-1,4-benzoxazepine-6-carbonitrile] | – | ≤ 500 |
| Cc1nn(C(C)c2cc(Cl)c(C#N)c3c2OC(C)CN(C2CN(S(=O)(=O)N(C)C)C2)C3)c2ncnc(N)c12 (single isomer, unassigned) [Example 105, 3-[9-[1-(4-amino-3-methyl-1H-pyrazolo[3,4-d]pyrimidin-1-yl)ethyl]-7-chloro-6-cyano-2-methyl-2,3-dihydro-1,4-benzoxazepin-4(5H)-yl]-N,N-dimethylazetidine-1-sulfonamide] | – | ≤ 500 |
| Cc1nn(C(C)c2cc(Cl)c(C#N)c3c2OC(C)CN(C2CN(S(=O)(=O)N(C)C)C2)C3)c2ncnc(N)c12 (single isomer, unassigned) [Example 106, 3-[9-[1-(4-amino-3-methyl-1H-pyrazolo[3,4-d]pyrimidin-1-yl)ethyl]-7-chloro-6-cyano-2-methyl-2,3-dihydro-1,4-benzoxazepin-4(5H)-yl]-N,N-dimethylazetidine-1-sulfonamide] | ≤ 500 | – |
| Cc1nn(C(C)c2cc(Cl)c(C#N)c3c2OC(C)CN(CC#N)C3)c2ncnc(N)c12 (single isomer, unassigned) [Example 108, 9-[1-(4-amino-3-methyl-1H-pyrazolo[3,4-d]pyrimidin-1-yl)ethyl]-7-chloro-4-(cyanomethyl)-2-methyl-2,3,4,5-tetrahydro-1,4-benzoxazepine-6-carbonitrile] | – | ≤ 500 |
| Cc1nn(C(C)c2cc(Cl)c(C#N)c3c2OC(C)CN(CC(N)=O)C3)c2ncnc(N)c12 (single isomer, unassigned) [Example 110, 2-[9-[1-(4-amino-3-methyl-1H-pyrazolo[3,4-d]pyrimidin-1-yl)ethyl]-7-chloro-6-cyano-2-methyl-2,3-dihydro-1,4-benzoxazepin-4(5H)-yl]acetamide] | – | ≤ 500 |
| COCCN1Cc2c(C#N)c(Cl)cc(C(C)n3nc(C)c4c(N)ncnc43)c2OC(C)C1 (single isomer, unassigned) [Example 112, 9-[1-(4-amino-3-methyl-1H-pyrazolo[3,4-d]pyrimidin-1-yl)ethyl]-7-chloro-4-(2-methoxyethyl)-2-methyl-2,3,4,5-tetrahydro-1,4-benzoxazepine-6-carbonitrile] | – | ≤ 500 |
